The results in this text go back to patent publication EP0947511A1, “Derivatives of phenoxy acetic acid and of phenoxymethyl tetrazole having antitumor activity” (F. HOFFMANN-LA ROCHE AG, priority 1998, dated 1999).

Each structure is given as a SMILES string.

One test has as its system MCF-7ADR. Description: Radiosensitizing activity of MDM2 antagonistic compounds, MCF-7ADR cells. The class given is cell-based, human. As to conditions: MCF-7 ADR cells (mutant p53, high GST content). On the procedure: Biologic assay for radiosensitizing activity of MDM2 antagonistic compounds: Human tumor cell lines containing wild-type p53 and low levels of GST, such as MCF7 (breast carcinoma) or mutant p53 and a high GST content, such as MCF7 ADR (adriamycin-resistant breast carcinoma) are cultivated in RPMI medium, supplemented with 10% fetal calf serum to a semi-confluent state.
In order to determine the radiosensitizing activity of selected compounds on these cells a minimal toxic dose was determined as 2Gy with a ^137Cesium source at room temperature. Following irradiation of monolayer cells in exponential growth phase with 2 Gy, cells were incubated with various concentrations of the selected compounds for 2-6 h. Cells were trypsinized and seeded in appropriate dilutions into 6 well plates. Surviving cells were trypsinized after 12-13 days and cell number was determined by staining with trypane blue for living/dead cells. The protocol was established according to Khil et al., 1996, Int. J. Rad. Oncol. Biol. Phys. 34, 375-380.

The next test deals with HT29 cytosolic GST (Homo sapiens, UniProt P09211). Description: Spectrophotometric GST activity analysis. The class given is biochemical. To be noted: inhibition of GST activity in HT29 cells. On the procedure:
GST catalyzes the conjugation of CDNB with glutathione and results in a CDNB-glutathione product with a strong molar absorption at 340 nm. The change of absorption is monitored for 5 min.
1 x 10^6 cells are collected and washed once with ice-cold phosphate-buffered saline at 1000 rpm for 10 min at 4°C. Cell pellets are resuspended in 200 µl ice-cold phosphate-buffered saline, and are sonicated for 2 min on ice. The sonicate is then centrifuged at 11750 g, 4°C for 15 min in an Eppendorf Centrifuge, and the supernatant is assayed for GST activity.

Chain of HT29 cytosolic GST (P09211 2-210): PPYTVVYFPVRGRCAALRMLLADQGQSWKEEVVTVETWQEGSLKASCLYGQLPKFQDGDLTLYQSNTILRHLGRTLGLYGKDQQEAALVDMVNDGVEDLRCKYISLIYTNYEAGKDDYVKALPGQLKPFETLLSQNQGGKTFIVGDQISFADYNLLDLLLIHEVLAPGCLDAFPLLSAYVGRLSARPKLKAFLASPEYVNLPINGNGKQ

For `O=C(O)COc1ccc(C(=O)/C=C/c2ccc(Cl)c(Cl)c2)cc1` [LSM 83177, 3,4-dichloro-4'-(carboxymethoxy)chalcone], the radiosensitization entry in the test with MCF-7ADR is “leads to a radiosensitization in MCF-7 ADR cells”. Also, on HT29 cytosolic GST, the IC-50 is listed as 7,7 µg/ml.

Regarding `C=C(CC)C(=O)c1ccc(OCC(=O)O)c(Cl)c1Cl` [ethacrynic acid, reference compound], the radiosensitization entry in the test with MCF-7ADR is “does not mediate any radiosensitization”.
